Our source for the vascular leakage and brain bleeding values is US20150258168A1, “MODULATION OF PODOPLANIN MEDIATED PLATELET ACTIVATION” (OKLAHOMA MEDICAL RESEARCH FOUNDATION, priority 2012, published 2015).

“Also recorded” adds a separate entry of the source.

In this test the test system is NE-Pdpn^−/− mice. Kind of test: tMCAO-induced ischemia/reperfusion, brain bleeding and Evans blue leakage. It counts as in vivo. As to conditions: NE-Pdpn^−/− mice after tMCAO (1.5 hr ischemia and 24 hr reperfusion), 100 mg/kg body weight, i.p., n=2/group, pilot experiment. As to the method:
FIG. 12. […] Gross images of cronal sections of NE− Pdpn^−/− brains. The mice (6-wks-old) were treated either with SEW2871 or DMSO (solvent of SEW2871) immediately after reperfusion. 24 hrs after the reperfusion, mice were intravenously injected with Evans blue, sacrificed and immediately perfused with saline and 4% PFA. Arrows show bleeding. Asterisks show leakage of Evans blue. R, right side (tMCAO side).
To determine the role of PDPN in astrocytes in protecting vascular integrity in the adult brain after injury, the inventor has have established a transient middle cerebral artery occlusion (tMCAO)-induced ischemia/reperfusion model that is widely accepted as a model for secondary hemorrhage in human patients with ischemic stroke (Fan et al., 2010). […] In addition, he will include Magnetic Resonance Imaging (MRI) to detect early hemorrhage, monitor its progress, and quantify bleeding volume (every 10 h). […]
The S1P receptor S1P1 is highly expressed on vascular endothelial cells (Kono et al., 2004). […] Cerebral vascular permeability/edema will be detected by intravenous injection of Evans blue and the wet/dry ratio of the brains. Vascular integrity will be analyzed by confocal imaging and/or TEM as described in C1.3.3. […]

As to `FC(F)(F)c1cccc(-c2noc(-c3cc(-c4ccccc4)c(C(F)(F)F)s3)n2)c1` [SEW2871], the vascular leakage result (Evans blue) is recorded as “ameliorated”. Besides, the brain bleeding entry (100 mg/kg) is on record as “ameliorated; also recorded: ameliorates brain bleeding”.
